The subject of this assay is adult rat lavaged lungs. Description: Isolated rat lavaged lung model (pressure-volume curves). Here is the method:
Preparation of Artificial Surfactants. For triplicate samples of the synthetic lung surfactants 75 mg of DPPC (L-α-dipalmitoylphosphatidylcholine; >99% pure; Avanti Polar Lipids, Birmingham, Ala.) in 1 ml of chloroform were dried under a stream of nitrogen and placed in a lyophilizer overnight to remove traces of organic solvent. To the dry lipid mixture were added 9 ml of water. The preparation was incubated for 1 hr at 45°-50° C. with occasional vortexing. Then, in some samples, […] of dry test peptide were added to the aqueous preparation. The preparations were mildly sonicated with and without peptide in a cleaning bath sonicator (Branson 1200) at 45°-50° C. for 2 h to promote peptide dispersion and peptide-lipid interactions. The resulting lipid-peptide mixtures were divided into three parts, lyophilized and stored at -20° C.
The experimental procedures for animal preparation, pressure-volume curve registration and lung lavage have been described by the rat lung model (Ikegami, et al., (1979) Pediatr. Res. 13, 777-780) as modified by McLean et al., Am. J. Physiol. (1992), L292-L300. Briefly, the lungs of adult rats were suspended in 0.9% saline at 37° C. were connected to a water manometer and an air-filled syringe by a T-tube. The deflation limb of a pressure-volume curve was recorded prior to lavage, after extensive lavage with 0.9% NaCl, 10 mM HEPES, pH 7.4 and after administration of surfactant mixtures in 2 ml of 0.9% NaCl, 10 mM HEPES buffer, pH 7.40. The deflation limbs of the pressure-volume (P-V) curves in adult rat lungs were analyzed by calculating the total lung capacities (% TLC) at 5 and 10 cm H2 O pressure (PC5 and PC10). The per cent of total lung capacities at 5 and 10 cm of H2 O (PC5 and PC10) were measured after addition of the synthetic lung surfactants to adult rat lavaged lungs at a dose of 25 mg of lipid (32 umoles) and 1 mg of peptide. Restorations are based on PC5. […] Comparisons were based on restoration,i.e. for PC5, ([…])×100%/(PC5.sbsb.(sufficient) -PC5.sbsb.(deficient)) and made by one-way analysis of variance using the GLM procedure with specific contrasts of the means (SAS Institute Inc., Cary, N.C.).
References, consisting of DPPC alone and dog lung surfactant, respectively,were employed as reference standards: Reference I was prepared as follows. DPPC was purchased from Avanti Polar Lipids. 25 mg of DPPC in chloroform was dried under a stream of nitrogen and lyophilized to remove traces of organic solvent. To the dry lipid mixture was added 3 ml of water. The preparation was incubated at 45° C. for 1 hour with ultrasonication in a bath sonicator. The lipid was lyophilized, stored at 4° C. for up to one week and mixed with 9 ml of 0.9% NaCl, 20 mM HEPES buffer, pH 7.40. […]

Where [1] appears, read: deflation limb of P-V curve, adult rat lavaged lungs, dose 25 mg lipid and 1 mg peptide, mean ± S.E.

With `CCCCCCCCCCCCCCCC(=O)OC[C@H](COP(=O)([O-])OCC[N+](C)(C)C)OC(=O)CCCCCCCCCCCCCCC` [Reference I, L-α-dipalmitoylphosphatidylcholine], the “effect on improving the compliance of the rat lung” value (adult rat lung model, stated in words) was “no effect”. The “Restoration (%)” value (based on PC5 relative to sufficient and deficient lungs, mean ± S.E.) was -11 ± 8%. Besides, under setting [1], the “PC5 (% TLC), per cent of total lung capacity at 5 cm H2O” value was 13 ± 1 % TLC and the “PC10 (% TLC), per cent of total lung capacity at 10 cm H2O” value is listed as 31 ± 2 % TLC.

Source of the values: patent publication US5861481A, “Peptide lung surfactants and therapeutic combinations” (Merrell Pharmaceuticals Inc., priority 1997, dated 1999).
